The results in this text go back to ChEMBL document CHEMBL4229386, “Benzopyrroloxazines containing a bridgehead nitrogen atom as promising scaffolds for the achievement of biologically active agents” (Eur J Med Chem, 2018).

The target in assay [1] is T1, Acetylcholinesterase (Bos taurus, UniProt P23795).
T1 sequence (P23795 whole entry): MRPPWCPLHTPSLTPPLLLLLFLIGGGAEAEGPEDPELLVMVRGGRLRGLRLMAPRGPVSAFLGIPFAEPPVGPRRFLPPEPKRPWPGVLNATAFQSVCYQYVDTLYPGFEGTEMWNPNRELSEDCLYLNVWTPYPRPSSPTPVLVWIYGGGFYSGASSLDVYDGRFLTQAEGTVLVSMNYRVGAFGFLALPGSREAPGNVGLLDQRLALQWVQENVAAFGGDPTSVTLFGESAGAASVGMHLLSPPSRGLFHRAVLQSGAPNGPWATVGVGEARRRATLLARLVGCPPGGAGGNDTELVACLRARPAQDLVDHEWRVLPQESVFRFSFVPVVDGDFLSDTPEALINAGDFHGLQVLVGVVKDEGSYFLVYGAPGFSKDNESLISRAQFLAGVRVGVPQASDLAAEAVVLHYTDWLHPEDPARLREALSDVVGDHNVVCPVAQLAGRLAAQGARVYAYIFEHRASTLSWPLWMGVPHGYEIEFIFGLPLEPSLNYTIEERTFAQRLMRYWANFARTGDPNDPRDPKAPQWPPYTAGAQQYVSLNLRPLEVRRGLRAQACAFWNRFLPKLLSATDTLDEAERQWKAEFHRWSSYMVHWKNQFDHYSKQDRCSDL
Put plainly: Inhibition of bovine AChE using ACH iodide as substrate preincubated for 60 mins followed by substrate addition and measured after 1 hrs by spectrophotometeric analysis.

The species entered for assay [2] is Rattus norvegicus. Put plainly: Analgesic activity in rat assessed as inhibition of acetic acid-induced writhing. It is filed as functional. On the technique in general: An intraperitoneal irritant provokes the stretching counted in writhing tests.
Assay [3] relates to Hepatitis C virus. The assay is described as follows: Antiviral activity against HCV replicon after 3 days by RT-PCR analysis. It is filed as functional, organism-based, Hepacivirus hominis. The conditions noted are these: 72 h.
In assay [4] the test system is Escherichia coli. Put plainly: Antimicrobial activity against Escherichia coli. It counts as functional.
Assay [5] relates to Staphylococcus aureus. The assay is described as follows: Antimicrobial activity against Staphylococcus aureus. It counts as functional.
For assay [6], the target named is T2, RNA-directed RNA polymerase (Hepacivirus hominis, UniProt O39930). The assay is described as follows: Inhibition of HCV genotype 1b NS5B RNA dependent RNA polymerase expressed in Escherichia coli BL21 (DE3) using biotinylated oligo-dT12 primer as substrate after 60 mins. Details: species or system Hepatitis C virus subtype 1b.
T2 sequence (O39930 whole entry): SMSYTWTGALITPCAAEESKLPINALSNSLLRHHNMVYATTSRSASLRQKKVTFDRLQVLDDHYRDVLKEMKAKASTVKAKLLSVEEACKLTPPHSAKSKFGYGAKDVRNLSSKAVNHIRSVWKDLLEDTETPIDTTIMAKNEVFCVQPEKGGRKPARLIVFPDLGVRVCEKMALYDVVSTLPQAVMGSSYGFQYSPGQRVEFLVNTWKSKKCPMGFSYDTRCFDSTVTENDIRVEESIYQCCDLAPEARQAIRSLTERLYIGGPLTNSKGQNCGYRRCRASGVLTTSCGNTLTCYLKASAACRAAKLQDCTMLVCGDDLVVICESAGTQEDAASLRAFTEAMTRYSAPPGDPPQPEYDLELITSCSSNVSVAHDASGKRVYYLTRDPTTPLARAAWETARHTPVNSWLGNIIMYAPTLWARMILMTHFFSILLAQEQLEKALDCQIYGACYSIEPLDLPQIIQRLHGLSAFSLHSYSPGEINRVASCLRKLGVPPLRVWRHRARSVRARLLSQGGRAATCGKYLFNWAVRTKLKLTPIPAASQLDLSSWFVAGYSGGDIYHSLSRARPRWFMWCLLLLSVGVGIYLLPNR
Assay [7] addresses Sodium channel protein type 9 subunit alpha (Rattus norvegicus, UniProt O08562). The assay is described as follows: Inhibition of Nav1.7 in rat dorsal root ganglions at -60 mV holding potential by patch clamp assay. A general note: The patch-clamp technique gives a direct electrical read-out from membranes.
The target in assay [8] is T2, RNA-directed RNA polymerase. The assay is described as follows: Inhibition of HCV NS5B RNA dependent RNA polymerase.
For assay [9], the target named is Methionine aminopeptidase 2 (Homo sapiens, UniProt P50579). The assay is described as follows: Inhibition of human recombinant MetAP2 expressed in Sf9 insect cells using MAS as substrate after 30 mins by fluorometeric analysis.
Chain of Methionine aminopeptidase 2 (P50579 whole entry): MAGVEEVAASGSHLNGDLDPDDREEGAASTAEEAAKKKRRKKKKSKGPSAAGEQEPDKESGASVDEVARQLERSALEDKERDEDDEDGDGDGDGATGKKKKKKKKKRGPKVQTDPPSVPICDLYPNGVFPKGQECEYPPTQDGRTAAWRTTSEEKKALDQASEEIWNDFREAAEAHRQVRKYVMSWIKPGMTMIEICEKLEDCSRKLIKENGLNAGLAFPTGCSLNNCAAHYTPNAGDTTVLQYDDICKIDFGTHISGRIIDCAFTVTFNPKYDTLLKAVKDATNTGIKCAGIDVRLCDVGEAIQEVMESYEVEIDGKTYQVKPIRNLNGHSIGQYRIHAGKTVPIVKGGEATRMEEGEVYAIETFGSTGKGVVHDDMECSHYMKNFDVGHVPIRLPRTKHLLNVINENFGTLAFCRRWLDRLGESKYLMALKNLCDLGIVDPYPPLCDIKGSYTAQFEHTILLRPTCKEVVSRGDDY
The test system of assay [10] is Staphylococcus. Put plainly: Antimicrobial activity against Staphylococcus. It counts as functional.
Assay [11] can be described thus: Inhibition of [33P]-ATP binding to Escherichia coli NR2 after 15 mins by liquid scintillation analysis.

What is called Ki is the dissociation constant of the complex between target and ligand, obtained from inhibition or displacement. Read a high Ki as a looser hold on the target. For orientation: ED50 means the midpoint of the dose-response relation. As usually defined, the EC50 is the concentration giving half of the maximal effect. Lower therefore signals greater potency. In general, MIC refers to the least concentration at which growth counts as inhibited. The low end stands for inhibition by little substance, the high end for a need for much substance. A word on the IC50: it is the concentration that gives 50% inhibition.

In brackets after ≈: the same amount, converted by molar mass.

Chain of Sodium channel protein type 9 subunit alpha (O08562 whole entry): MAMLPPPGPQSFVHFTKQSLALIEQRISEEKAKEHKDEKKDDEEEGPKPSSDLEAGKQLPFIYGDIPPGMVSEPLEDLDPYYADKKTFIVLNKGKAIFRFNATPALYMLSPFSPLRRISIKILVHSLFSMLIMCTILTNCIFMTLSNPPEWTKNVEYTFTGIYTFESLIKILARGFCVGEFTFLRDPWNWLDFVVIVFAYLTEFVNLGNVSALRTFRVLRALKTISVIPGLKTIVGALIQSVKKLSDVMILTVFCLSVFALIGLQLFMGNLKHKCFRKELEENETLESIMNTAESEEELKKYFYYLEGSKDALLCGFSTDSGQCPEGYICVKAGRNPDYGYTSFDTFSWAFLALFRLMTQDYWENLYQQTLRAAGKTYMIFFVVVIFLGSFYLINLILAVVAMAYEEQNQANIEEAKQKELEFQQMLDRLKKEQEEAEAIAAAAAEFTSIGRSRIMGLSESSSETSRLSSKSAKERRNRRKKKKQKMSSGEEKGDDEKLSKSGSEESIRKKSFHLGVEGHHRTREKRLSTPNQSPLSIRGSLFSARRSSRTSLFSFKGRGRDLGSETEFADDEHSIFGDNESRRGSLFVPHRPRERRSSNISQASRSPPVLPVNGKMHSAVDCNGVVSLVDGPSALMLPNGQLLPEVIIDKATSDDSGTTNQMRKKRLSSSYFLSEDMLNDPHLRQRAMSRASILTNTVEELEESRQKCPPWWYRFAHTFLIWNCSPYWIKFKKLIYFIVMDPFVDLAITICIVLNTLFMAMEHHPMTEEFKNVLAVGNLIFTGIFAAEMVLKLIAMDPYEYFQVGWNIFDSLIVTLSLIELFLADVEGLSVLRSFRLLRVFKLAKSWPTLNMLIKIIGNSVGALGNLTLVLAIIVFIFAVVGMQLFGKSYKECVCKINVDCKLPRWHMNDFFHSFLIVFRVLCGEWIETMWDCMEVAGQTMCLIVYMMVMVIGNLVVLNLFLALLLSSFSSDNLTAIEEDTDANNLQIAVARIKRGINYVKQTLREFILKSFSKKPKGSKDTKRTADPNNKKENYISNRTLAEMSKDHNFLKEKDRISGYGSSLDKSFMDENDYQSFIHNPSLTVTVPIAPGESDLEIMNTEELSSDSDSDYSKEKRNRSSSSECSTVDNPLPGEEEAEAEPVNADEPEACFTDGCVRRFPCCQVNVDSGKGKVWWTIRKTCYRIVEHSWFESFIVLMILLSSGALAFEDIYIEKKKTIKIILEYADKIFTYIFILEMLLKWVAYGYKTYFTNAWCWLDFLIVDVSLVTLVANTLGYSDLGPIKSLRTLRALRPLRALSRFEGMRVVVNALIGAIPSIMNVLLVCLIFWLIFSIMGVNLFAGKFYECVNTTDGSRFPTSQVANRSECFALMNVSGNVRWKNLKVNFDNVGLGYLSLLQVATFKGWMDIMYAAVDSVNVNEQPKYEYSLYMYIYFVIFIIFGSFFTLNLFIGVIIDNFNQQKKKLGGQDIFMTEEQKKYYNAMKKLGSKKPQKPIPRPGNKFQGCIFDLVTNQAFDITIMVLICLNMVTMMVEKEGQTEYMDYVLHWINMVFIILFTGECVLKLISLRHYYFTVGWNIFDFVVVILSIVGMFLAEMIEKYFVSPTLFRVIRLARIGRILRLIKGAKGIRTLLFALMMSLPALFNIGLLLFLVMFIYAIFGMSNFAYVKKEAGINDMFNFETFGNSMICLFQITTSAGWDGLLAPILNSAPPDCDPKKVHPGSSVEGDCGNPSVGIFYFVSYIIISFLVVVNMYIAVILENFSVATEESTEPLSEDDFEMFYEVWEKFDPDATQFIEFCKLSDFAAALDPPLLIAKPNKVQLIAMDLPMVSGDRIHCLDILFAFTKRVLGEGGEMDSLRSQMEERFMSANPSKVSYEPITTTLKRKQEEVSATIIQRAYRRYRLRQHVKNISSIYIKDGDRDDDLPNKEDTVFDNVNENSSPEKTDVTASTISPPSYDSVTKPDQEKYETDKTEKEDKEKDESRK

`CC(=O)OC12C=CC(=O)N1c1ccccc1C(=O)O2` (stereo unspecified) returned an inhibition constant Ki in assay [1] of 4700 nM.
For `Cc1c(C(=O)c2ccc3ncccc3c2)c2cccc3c2n1C(CN1CCOCC1)CO3` (stereo unspecified), the 50% effective dose (ED50) in assay [2] stood at 3.5 mg/kg.
`COC(=O)NC(C(=O)N1CCCC1c1ncc(-c2ccc3c(c2)-n2ccc4cc(-c5cnc(C6CCCN6C(=O)C(NC(=O)OC)C(C)C)[nH]5)cc(c42)O3)[nH]1)C(C)C` (stereo unspecified): in assay [3], it took 0.01 nM to reach a half-maximal effect (EC50).
On to `CCCc1c(O)cc2oc3cccn3c(=O)c2c1O`, for which the MIC in assay [4] and in assay [5] was 2 µg/mL (≈ 7.71 µM) throughout.
For `CN(C)S(=O)(=O)NC(=O)c1ccc2c(C3CCCCC3)c(-c3ccccc3)n3c2c1OCC3`, in assay [6], the IC50 was below 10000 nM.
On to `COc1c(O)cccc1C(=O)N1CCC2(CC1)Oc1ccccc1-n1c(C#N)ccc12`, for which the IC50 in assay [7] was below 2000 nM.
`COC(=O)NC(C(=O)N1CCCC1c1ncc(-c2ccc3c(c2)OCn2c-3c(F)c3cc(-c4cnc(C5CCCN5C(=O)C(NC(=O)OC)C(C)C)[nH]4)ccc32)[nH]1)C(C)C` (stereo unspecified) displayed a concentration for half-maximal inhibition (IC50) in assay [8] of 0.001 nM.
Consider `CCN(CC)C/C=C\c1cc(F)ccc1S(=O)(=O)Nc1ccc2c(c1C(=O)O)OCc1cccn1-2`, for which the 50% inhibitory concentration (IC50) in assay [9] was below 50 nM.
`CCCc1c(O)cc2oc3cc(Cl)cn3c(=O)c2c1O` yielded a minimum inhibitory concentration (MIC) in [10] of 0.2 to 0.78 µg/mL (≈ 0.681 to 2.66 µM). Besides, in assay [11], the IC50 came out at 20000 nM.
